Data as given in patent publication US20120107240A1, “Probes and methods of melanoma imaging” (The Board of Trustees of the Leland Stanford Junior …, priority 2010, published 2012).

What was measured:
B16F10 tumor = assay: microPET quantification (ROI analysis) of tumors and other organs in B16F10 tumor-bearing mice; format: in vivo, C57BL/6 mice; settings: for tumor uptake: tail vein, B16F10 tumor
Protocol: B16F10 was cultured in Dulbecco's modified Eagle high-glucose medium (Gibco Life Sciences) supplemented with 10% fetal bovine serum with penicillin and streptomycin. The cells were regularly maintained in a 37° C., 5% CO2 humidified incubator. The subcutaneous B16F10 tumor models were prepared with 5- to 6-wk-old male C57BL/6 mice (Charles River). Static microPET scans were performed on the B16F10 tumor-bearing mice and representative decay-corrected coronal images at 0.5, 1, and 2 h after tail vein injection of ^18F-P3BZA (3-^18F-fluoropicolinamide) probe and ^18F-P2BZA (2-^18F-fluoronicotinamide) probe are shown in FIG. 2 (n=5 for each group), from which the B16F10 tumors were clearly visualized with good tumor-to-background contrast for both tracers (the white arrows indicate the tumors).
The microPET quantification analysis of tumors and other organs was obtained from the ROI analysis and the results at 0.5, 1, and 2 h p.i. are shown in FIG. 3. The tumor uptake of 18F-F3BZA probe was 11.8±2.2, 13.2±2.4, and 14.5±3.2% ID/g at 0.5, 1, and 2 h p.i., respectively. For ^18F-P2BZA probe, the tumor uptake was 5.5±1.6, 4.6±2.4, 5.5±2.6% ID/g at 0.5, 1, and 2 h p.i., respectively. […] The unspecific uptake by muscle is very low, 0.8±0.4, 1.0±0.5, 0.6±0.3% ID/g at 0.5, 1, and 2 h p.i.), which is the explanation of the high contrast images shown in FIG. 2.
(§1) The ^18F-fluoropicolinamides were prepared by radiofluorination reactions using no-carrier-added ^18F-fluoride and evaluated in vivo by biodistribution studies and micro-positron emission tomography (microPET) imaging in C57BL/6 mice bearing B16F10 murine melanoma tumors.

[1] = tested on: B16F10 murine melanoma tumors; assay: Noninvasive microPET and direct tissue sampling (biodistribution) in subcutaneous B16F10 melanoma xenografts; format: in vivo, C57BL/6 mice
Protocol: as §1
The total synthesis time was less than 1 hour. The radiochemical purity of the ^18F-labeled probes was more than 98% and the specific activity was 100-150 GBq/μmol.

| tumor uptake (B16F10 tumor; 0.5 h post injection) | tumor uptake (B16F10 tumor; 1 h post injection) | tumor uptake (B16F10 tumor; 2 h post injection) | in vivo stability ([1]; evidenced by bone uptake) | bone uptake in biodistribution studies ([1]; mouse, in vivo) | Kidneys uptake (B16F10 tumor; 0.5 h p.i.) | Liver uptake (B16F10 tumor; 0.5 h p.i.) | unspecific uptake by muscle (B16F10 tumor; 0.5 h p.i.) | Kidneys uptake (B16F10 tumor; 1 h p.i.) | Liver uptake (B16F10 tumor; 1 h p.i.) | unspecific uptake by muscle (B16F10 tumor; 1 h p.i.) | Kidneys uptake (B16F10 tumor; 2 h p.i.) | Liver uptake (B16F10 tumor; 2 h p.i.) | unspecific uptake by muscle (B16F10 tumor; 2 h p.i.) | tumor uptake (B16F10 tumor; 2 h post injection, listed as 18F-F3BZA) | tumor to muscle ratio (B16F10 tumor; at 2 h) | clearance from the blood (B16F10 tumor; mouse, in vivo) | bone uptake (B16F10 tumor; 1 h postinjection) | bone uptake (B16F10 tumor; 2 h postinjection) | defluorination in the murine model (B16F10 tumor; evidenced by bone uptake) | Substance |
| --- | --- | --- | --- | --- | --- | --- | --- | --- | --- | --- | --- | --- | --- | --- | --- | --- | --- | --- | --- | --- |
| 5.5±1.6 % ID/g | 4.6±2.4 % ID/g | 5.5±2.6 % ID/g | – | – | – | – | – | – | – | – | – | – | – | – | – | – | – | – | – | 2-^18F-fluoronicotinamide [^18F-P2BZA, reference compound] |
| 11.8±2.2 % ID/g | 13.2±2.4 % ID/g | 14.6±3.2 % ID/g | good | low | 6.9±1.1 % ID/g | 5.1±0.8 % ID/g | 0.8±0.4 % ID/g | 4.7±0.8 % ID/g | 4.3±1.1 % ID/g | 1.0±0.5 % ID/g | 3.0±0.6 % ID/g | 3.0±0.6 % ID/g | 0.6±0.3 % ID/g | 14.5±3.2 % ID/g | 25.3 | cleared rapidly | – | – | – | 3-^18F-fluoropicolinamide [^18F-P3BZA] |
| 10.7±1.3 % ID/g | 10.5±1.8 % ID/g | 8.7±2.3 % ID/g | – | – | – | – | – | – | – | – | – | – | – | – | – | – | 11.3±2.9 % ID/g | 10.3±3.6 % ID/g | very high | 4-^18F-fluoropicolinamide [^18F-P4BZA] |
